pIC50: −log10 of the molar value. Like-named read-outs stand apart in the source and are kept apart here.
Target: T1, human cardiac ion channel proteins hKir3.1/Kir3.4 (Homo sapiens, UniProt P48544+P48549)
T1 construct: expressed in transfected cells
T1 sequence (P48549 1-501): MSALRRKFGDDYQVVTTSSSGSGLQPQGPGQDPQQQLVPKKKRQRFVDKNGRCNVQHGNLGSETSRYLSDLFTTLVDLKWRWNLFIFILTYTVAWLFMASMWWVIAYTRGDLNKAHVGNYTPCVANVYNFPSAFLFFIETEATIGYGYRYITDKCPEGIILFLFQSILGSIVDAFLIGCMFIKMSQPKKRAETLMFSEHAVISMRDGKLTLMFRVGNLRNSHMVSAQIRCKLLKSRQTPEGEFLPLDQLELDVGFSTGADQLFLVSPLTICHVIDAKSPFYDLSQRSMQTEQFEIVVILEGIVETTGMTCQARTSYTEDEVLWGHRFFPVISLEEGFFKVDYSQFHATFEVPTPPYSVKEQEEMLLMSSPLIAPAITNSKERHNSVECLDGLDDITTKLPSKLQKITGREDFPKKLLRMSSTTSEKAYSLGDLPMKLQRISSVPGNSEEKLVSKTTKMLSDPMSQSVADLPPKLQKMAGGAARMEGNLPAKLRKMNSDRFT
T1 sequence (P48544 1-419): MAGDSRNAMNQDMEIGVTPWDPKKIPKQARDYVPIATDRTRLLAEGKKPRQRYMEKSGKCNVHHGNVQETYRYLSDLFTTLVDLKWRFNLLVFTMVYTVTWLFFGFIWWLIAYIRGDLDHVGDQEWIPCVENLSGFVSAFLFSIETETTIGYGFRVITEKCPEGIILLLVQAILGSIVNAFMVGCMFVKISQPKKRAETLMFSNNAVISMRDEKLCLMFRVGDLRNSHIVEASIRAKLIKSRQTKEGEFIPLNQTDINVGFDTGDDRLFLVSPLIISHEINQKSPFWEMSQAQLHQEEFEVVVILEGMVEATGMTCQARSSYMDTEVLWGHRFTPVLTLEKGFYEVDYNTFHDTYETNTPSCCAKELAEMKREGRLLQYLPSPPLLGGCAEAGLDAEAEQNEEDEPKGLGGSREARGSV
Assay: Atomic Absorption Screening (AAS) Rb efflux assay of hKir3.1/Kir3.4 block, carbachol/high K+ stimulated, 10-pt or 7-pt CR
Assay type: cell-based
Summary of the method: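 CHO-K1 cells stably co-expressing human Kir3.1/Kir3.4 were Rb-loaded for 3 h at 37° C, preincubated with compound 5 min at RT, then stimulated 10 min with 10 μM carbachol plus 20 mM KCl (final). Supernatant Rb was measured by atomic absorption. Compounds ran at 0.003–67 μmol/L (10-pt) or 0.037–27 μmol/L (7-pt), threefold dilutions; IC50s are means of >4 or >3 replicates respectively.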

[1] = 7-pt CR (0.037 to 27 μmol/L), AAS Rb efflux, CHO-K1 cells expressing hKir3.1/Kir3.4, mean of >3 replicates, read-out: IKACh IC50 7-pt CR, AAS
[2] = 10-pt CR (0.003 to 67 μmol/L), AAS Rb efflux, CHO-K1 cells expressing hKir3.1/Kir3.4, mean of >4 replicates, read-out: IKACh IC50 10-pt CR, AAS

Compound	pIC50 [2]	also measured
CC(C)[C@@H](CN1CCCC1)N(C)C(=O)c1cc(F)ccc1F [Example 16.22, (S)-2,5-Difluoro-N-methyl-N-(3-methyl-1-(pyrrolidin-1-yl)butan-2-yl)benzamide]		pIC50 [1]: 4.74
CSc1ccc(C(=O)N(C)[C@@H](CC(C)C)CN2CC(O)C2)cc1 [Example 38.8, N-[(2S)-1-(3-Hydroxyazetidin-1-yl)-4-methylpentan-2-yl]-N-methyl-4-(methylsulfanyl)benzamide]	6.08	
Cc1ccc(C(=O)N(C)[C@H](CN2CC[C@H](O)C2)C(C)C)cc1 [Example 16.43, N-[(1S)-1-{[(3S)-3-Hydroxypyrrolidin-1-yl]methyl}-2-methylpropyl]-N,4-dimethylbenzamide]		pIC50 [1]: 5.26
CC(C)[C@@H](CN1CCC1)N(C)C(=O)c1cccc(Cl)c1 [Example 1.13, (S)-N-(1-(Azetidin-1-yl)-3-methylbutan-2-yl)-3-chloro-N-methylbenzamide]	4.92	
Cc1cccc(C(=O)N(C)[C@H](CN2CC[C@H](O)C2)C(C)C)c1 [N-[(1S)-1-{[(3S)-3-Hydroxypyrrolidin-1-yl]methyl}-2-methylpropyl]-N,3-dimethylbenzamide]		pIC50 (printed as IC50 >67 μM in the 10-pt CR assay or IC50 >27 μM in the 7-pt CR assay, assay format per compound not stated, read-out: IC50): < 4.57
COC[C@@H]1CCCN1C[C@H](C(C)C)N(C)C(=O)c1ccc(OC)cc1 [Example 3.18, 4-Methoxy-N-((S)-1-((S)-2-(methoxymethyl)pyrrolidin-1-yl)-3-methylbutan-2-yl)-N-methylbenzamide]	5.72	
COC1CCN(C[C@H](C(C)C)N(C)C(=O)c2ccc(F)c(Cl)c2)CC1 [Example 3.9, (S)-3-Chloro-4-fluoro-N-(1-(4-methoxypiperidin-1-yl)-3-methylbutan-2-yl)-N-methylbenzamide]	5.52	
CC(C)[C@@H](CCN1CCCC1)N(C)C(=O)c1cccc(Cl)c1 [Example 13.3, (R)-3-Chloro-N-methyl-N-(4-methyl-1-(pyrrolidin-1-yl)pentan-3-yl)benzamide]	4.72	
Cc1ccc(F)c(C(=O)N(C)[C@H](CN2CC(O)C2)C2CCC2)c1 [Example 39.10, (S)—N-(1-Cyclobutyl-2-(3-hydroxyazetidin-1-yl)ethyl)-2-fluoro-N,5-dimethylbenzamide]	6.09	
CC(C)[C@@H](CN1C[C@H](O)[C@@H](O)C1)N(C)C(=O)c1ccc(Cl)c(F)c1 [Example 8.15, 4-Chloro-N-((S)-1-((3S,4S)-3,4-dihydroxypyrrolidin-1-yl)-3-methylbutan-2-yl)-3-fluoro-N-methylbenzamide]	5.35	
Cc1cc(C(=O)N(C)C(CN2CC(O)C2)C2CCCC2)ccc1F (single isomer, unassigned) [32.4, isomer 1]	7.47	
CC(C)[C@@H](CN1CCCC1)N(C)C(=O)c1cc(F)cc(F)c1F [Example 16.9, (S)-2,3,5-Trifluoro-N-methyl-N-(3-methyl-1-(pyrrolidin-1-yl)butan-2-yl)benzamide]	4.85	pIC50 [1]: 5.41
CN(C(=O)c1ccc(C#N)cc1F)[C@H](CN1CC(O)C1)C1CCCCC1 [Example 36.4, 4-Cyano-N-[(1S)-1-cyclohexyl-2-(3-hydroxyazetidin-1-yl)ethyl]-2-fluoro-N-methylbenzamide]	6.48	
CCCC[C@@H](CN1CC(O)C1)N(C)C(=O)c1ccc(F)c(F)c1 [Example 33.2, 3,4-Difluoro-N-[(2S)-1-(3-hydroxyazetidin-1-yl)hexan-2-yl]-N-methylbenzamide]	6.49	
Cc1cc(C(=O)N(C)C(CN2CC(O)C2)C2CCCC2)ccc1F (single isomer, unassigned) [32.4, isomer 2]	6.01	
CN(C(=O)c1ccc(F)cc1)[C@H](CN1CC(O)C1)C1CCC1 [Example 39.13, (S)—N-(1-Cyclobutyl-2-(3-hydroxyazetidin-1-yl)ethyl)-4-fluoro-N-methylbenzamide]	6.80	
Cc1ccc(C(=O)N(C)[C@H](CN2CCC2)C2CC2)cc1C [Example 9.10, N-[(1S)-2-(azetidin-1-yl)-1-cyclopropylethyl]-N,3,4-trimethylbenzamide]	5.68	
CN(C(=O)c1cccc(C#N)c1)[C@H](CN1CC(O)C1)C1CCCCC1 [Example 36.3, 3-Cyano-N-[(1S)-1-cyclohexyl-2-(3-hydroxyazetidin-1-yl)ethyl]-N-methylbenzamide]	6.04	
CCC[C@@H](CN1CCC1)N(C)C(=O)c1ccc(Cl)cc1Cl [Example 1.1, (S)—N-(1-(Azetidin-1-yl)pentan-2-yl)-2,4-dichloro-N-methylbenzamide]	5.64	
CC(C)[C@@H](CN1CCCC(F)(F)C1)N(C)C(=O)c1ccc(F)c(C(F)(F)F)c1 [Example 16.2, (S)—N-(1-(3,3-Difluoropiperidin-1-yl)-3-methylbutan-2-yl)-4-fluoro-N-methyl-3-(trifluoromethyl)benzamide]	4.82	
COC1CCN(C[C@H](C(C)C)N(C)C(=O)c2cccc(C)c2)CC1 [Example 3.10, (S)-N-(1-(4-Methoxypiperidin-1-yl)-3-methylbutan-2-yl)-N,3-dimethylbenzamide]	4.85	
CN(C(=O)c1ccc(F)c(F)c1)[C@H](CN1CC(O)C1)C1CCCC1 (single isomer, unassigned) [32.1, isomer 1]	6.59	
